19 compounds from patent publication US10030027B2, “Soluble guanylate cyclase stimulators” (MERCK SHARP & DOHME CORP., priority 2015, dated 2018) can be followed below.

Assay [1] addresses human recombinant sGC enzyme (Homo sapiens (Human), UniProt Q02108+Q02153). The experiment in a line: Size Exclusion Chromatography (SEC) competition binding assay using [3H] Ex-77B as the radioligand. Particulars: [3H] Ex-77B radioligand, 24 hours at 37° C. As to the method:
Binding Assay: The binding potencies of sGC compounds to the human recombinant sGC enzyme were determined in a Size Exclusion Chromatography (SEC) competition binding assay using [^3H] Ex-77B as the radioligand. [^3H] Ex-77B was prepared using a standardardized tritium exchange procedure. The parent (non-labeled) molecule was first iodinated then a Pd-catalyzed iodine to tritium exchange provided the labeled compound. […] Assays were conducted in 96-well plates in a total volume of 200 μL. […] Non-specific binding was defined by competition with 1 μM of Ex-77B. After the incubation period, the binding mixtures were loaded onto the gel-filtration plate (ThermoFischer Cat. No. 89808) pre-equilibrated with binding buffer and spun at 1000×g for 3 min at 4° C. on a Bench top centrifuge. The collected eluates in White Frame Clear Well Isoplates (Perkin Elmer Cat #6005040) received 100 μl of UltimaGold scintillation cocktail. The sealed plates were shaken vigorously and span, and counted after 6 hours with a Wallac Microbeta TriLux 1450 LSC & Luminescence Counter (Perkin Elmer). Data from competition experiments were analyzed to determine Ki values using one site fit Ki equation.
A general note: SEC sorts molecules by how far they enter the pores of the column.

Assay [2] deals with sGC α1/β1 heterodimer (Homo sapiens (Human), UniProt Q02108+Q02153). As to the kind of experiment: Cell-based sGC functional assay (cyclic GMP assay for sGC activator: CASA assay). More on the design: % Activation: concentration or dose not given beside the values. As to conditions: CHO-K1/sGC cells; for Emax: CHO-K1, activity expressed as percentage of compound A (standard), read-out: % Activation; for EC50: inflection point, 4P fit, read-out: IP; for % Activation: activity expressed as percentage of compound A (standard). A digest of the protocol: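 CHO-K1 cells stably expressing sGC α1/β1 were pre-incubated with or without 1 μM DETA-NO (30 min, 25 °C), then exposed to compounds for 1 hr at 37 °C with 0.5 mM IBMX. Intracellular cGMP was read by HTRF and expressed as a percentage of a reference heme-dependent activator's maximum.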

Broadly, the Ki is the dissociation constant of the complex between target and ligand, obtained from inhibition or displacement. `CC1(c2cccc(C(=O)O)n2)C(=O)Nc2nc(-c3nn(Cc4ccccc4F)c4cc(Cl)ccc34)nc(N)c21` (centres unmarked) [Example 255A, 6-{4-Amino-2-[6-chloro-1-(2-fluorobenzyl)-1H-indazol-3-yl]-5-methyl-6-oxo-6,7-dihydro-5H-pyrrolo[2,3-d]pyrimidin-5-yl}picolinic acid]: in assay [1], the Ki worked out at 0.073 nM. Besides, in assay [2], the Emax is 108% and the EC50 was found to be 1480 nM.
Taken in the same sequence, the figures for `CC1(c2ccc(/C=C/C(=O)O)cc2)C(=O)Nc2nc(-c3nn(Cc4ccccc4F)c4cc(Cl)ccc34)nc(N)c21` (centres unmarked) [Example 218A, (2E)-3-(4-{4-amino-2-[6-chloro-1-(2-fluorobenzyl)-1H-indazol-3-yl]-5-methyl-6-oxo-6,7-dihydro-5H-pyrrolo[2,3-d]pyrimidin-5-yl}phenyl)prop-2-enoic acid] were 0.057 nM, 103% and 301 nM.
Regarding `Cc1ccc(F)c(Cn2nc(-c3nc(N)c4c(n3)NC(=O)[C@@]4(C)c3nc(CC(C)(C)C(=O)O)cs3)c3ccc(Cl)cc32)c1` (single isomer, unassigned) [Example 214A], the Ki in assay [1] worked out at 0.267 nM. Also, in assay [2], the Emax was 116% and the EC50 was 320 nM.
Taken in the same sequence, the figures for `CC(C)(Cc1csc([C@]2(C)C(=O)Nc3nc(-c4nn(Cc5ccccc5F)c5ncc(F)cc45)nc(N)c32)n1)C(=O)O` [Example 91B, (S)-3-(2-{4-amino-2-[5-fluoro-1-(2-fluorobenzyl)-1H-pyrazolo[3,4-b]pyridin-3-yl]-5-methyl-6-oxo-6,7-dihydro-5H-pyrrolo[2,3-d]pyrimidin-5-yl}-1,3-thiazol-4-yl)-2,2-dimethylpropanoic acid] were 0.18 nM, 123% and 132 nM.
For `CCCCCn1nc(-c2nc(N)c3c(n2)NC(=O)[C@@]3(C)c2ccc(CCC(=O)O)cc2)c2ccc(Cl)cc21` [Example 43B, (S)-3-{4-[4-amino-2-(6-chloro-1-pentyl-1H-indazol-3-yl)-5-methyl-6-oxo-6,7-dihydro-5H-pyrrolo[2,3-d]pyrimidin-5-yl]phenyl}propanoic acid], in that order: 0.096 nM, 105% and 142 nM.
For `CC1(c2nc(-c3ccc(C(=O)O)cc3)cs2)C(=O)Nc2nc(-c3nn(Cc4ccccc4F)c4cc(Cl)ccc34)nc(N)c21` (centres unmarked) [Example 165A, 4-(2-{4-amino-2-[6-chloro-1-(2-fluorobenzyl)-1H-indazol-3-yl]-5-methyl-6-oxo-6,7-dihydro-5H-pyrrolo[2,3-d]pyrimidin-5-yl}-1,3-thiazol-4-yl) benzoic acid], in that order: 0.081 nM, 110% and 48 nM.
For `CC(C)(Cn1cc(C2(C)C(=O)Nc3nc(-c4nn(Cc5ccccc5F)c5ncccc45)nc(N)c32)cn1)C(=O)O` (centres unmarked) [Example 145A, 3-(4-{4-amino-2-[1-(2-fluoro-benzyl)-1H-pyrazolo [3,4-b]pyridin-3-yl]-5-methyl-6-oxo-6,7-dihydro-5H-pyrrolo[2,3-d]pyrimidin-5-yl}-1H-pyrazol-1-yl)-2,2-dimethyl-propanoic acid], the Ki in assay [1] was 0.299 nM. Moreover, in assay [2], the Emax stood at 82.9% and the EC50 was 391 nM.
For `CC(C)(Cc1coc(C2(C)C(=O)Nc3nc(-c4nn(Cc5cccc(F)c5F)c5cc(F)ccc45)nc(N)c32)n1)C(=O)O` (centres unmarked) [Example 200A, 3-(2-{4-amino-2-[1-(2,3-difluoro-benzyl)-6-fluoro-1H-indazol-3-yl]-5-methyl-6-oxo-6,7-dihydro-5H-pyrrolo[2,3-d]pyrimidin-5-yl}-1,3-oxazol-4-yl)-2,2-dimethyl-propanoic acid], in that order: 0.052 nM, 120% and 220 nM.
Consider `CC(C)(Cc1csc([C@]2(C)C(=O)Nc3nc(-c4nn(CC5CCCCO5)c5ncccc45)nc(N)c32)n1)C(=O)O` (single isomer, unassigned) [Example 123AB], for which, in assay [1], the inhibition constant Ki was found to be 0.874 nM. For the same compound, in assay [2], the “% Activation” value is 95.8% and the EC50 turned out to be 1960 nM.
For the compound `CC(C)(Cc1csc([C@]2(C)C(=O)Nc3nc(-c4nn(Cc5ccccc5F)c5ncccc45)nc(N)c32)n1)c1nn[nH]n1` [Example 241A, (S)-4-amino-2-[1-(2-fluoro-benzyl)-1H-pyrazolo[3,4-b]pyridin-3-yl]-5-methyl-5-{4-[2-methyl-2-(2H-tetrazol-5-yl)propyl]-1,3-thiazol-2-yl}-5,7-dihydro-6H-pyrrolo[2,3-d] pyrimidin-6-one], the Ki in assay [1] worked out at 0.121 nM. For the same compound, in assay [2], the Emax turned out to be 94.8% and the EC50 was determined as 403 nM.
For `CC1CCC(Cn2nc(-c3nc(N)c4c(n3)NC(=O)C4(C)c3nc(CC(C)(C)C(=O)O)co3)c3ccc(Cl)cc32)CC1` (single isomer, unassigned) [Example 132AA, 3-{2-[4-amino-2-{6-chloro-1-[4-methylcyclohexylmethyl]-1H-indazol-3-yl}-5-methyl-6-oxo-6,7-dihydro-5H-pyrrolo[2,3-d]pyrimidin-5-yl]-1,3-oxazol-4-yl}-2,2-dimethylpropanoic acid], in that order: 0.105 nM, 109% and 125 nM.
For `CC(C)(Cc1csc([C@]2(C)C(=O)Nc3nc(-c4nn(Cc5c(F)ccc(F)c5F)c5ccccc45)nc(N)c32)n1)C(=O)O` [Example 224A, (S)-3-(2-{4-amino-5-methyl-6-oxo-2-[1-(2,3,6-trifluorobenzyl)-1H-indazol-3-yl]-6,7-dihydro-5H-pyrrolo[2,3-d]pyrimidin-5-yl}-1,3-thiazol-4-yl)-2,2-dimethyl-propanoic acid], in that order: 0.067 nM, 111% and 14 nM.
Taken in the same sequence, the figures for `CC1(c2cccc(C(=O)O)c2)C(=O)Nc2nc(-c3nn(Cc4ccccc4F)c4cc(Cl)ccc34)nc(N)c21` (centres unmarked) [Example 169B, 3-{4-amino-2-[6-chloro-1-(2-fluorobenzyl)-1H-indazol-3-yl]-5-methyl-6-oxo-6,7-dihydro-5H-pyrrolo[2,3-d]pyrimidin-5-yl} benzoic acid] were 0.104 nM, 90.3% and 159 nM.
Regarding `CC(C)(Cn1cc(C2(C)C(=O)Nc3nc(-c4nn(Cc5ccccc5F)c5cc(Cl)ccc45)nc(N)c32)nn1)C(=O)O` (single isomer, unassigned) [Example 140A, 3-(4-{4-Amino-2-[6-chloro-1-(2-fluorobenzyl)-1H-indazol-3-yl]-5-methyl-6-oxo-6,7-dihydro-5H-pyrrolo[2,3-d]pyrimidin-5-yl}-1H-1,2,3-triazol-1-yl)-2,2-dimethylpropanoic acid], in assay [1], the Ki was 0.227 nM. For the same compound, the EC50 in assay [2] came out at 798 nM.
Regarding `CC1CCC(Cn2nc(-c3nc(N)c4c(n3)NC(=O)C4(C)c3nc(CC(C)(C)C(=O)O)co3)c3ccccc32)CC1` (single isomer, unassigned) [Example 231AA, 3-{2-[4-amino-5-methyl-2-{1-[-4-methylcyclo-hexylmethyl]-1H-indazol-3-yl}-6-oxo-6,7-dihydro-5H-pyrrolo[2,3-d]pyrimidin-5-yl]-1,3-oxazol-4-yl}-2,2-dimethyl-propanoic acid], the Ki in assay [1] came to 0.092 nM. Further, in assay [2], the “% Activation” value is on record as 148.2% and the EC50 was 113 nM.
On to `CC(C)(Cc1csc([C@]2(C)C(=O)Nc3nc(-c4nn(CC5CCCCC5)c5ncccc45)nc(N)c32)n1)C(=O)O` (single isomer, unassigned) [Example 151A], for which the Ki in assay [1] stood at 0.124 nM. In assay [2], the Emax amounted to 131% and the EC50 was 194 nM.
Taken in the same sequence, the figures for `C[C@@]1(c2ccc(CCC(=O)O)cc2)C(=O)Nc2nc(-c3nn(Cc4c(F)cccc4F)c4cc(Cl)ccc34)nc(N)c21` (single isomer, unassigned) [Example 64B] were 0.075 nM, 101% and 302 nM.
As for `C[C@@]1(c2ccc(CCC(=O)NS(C)(=O)=O)cc2)C(=O)Nc2nc(-c3nn(Cc4ccccc4F)c4cc(Cl)ccc34)nc(N)c21` [Example 259B, (S)-3-(4-{4-Amino-2-[6-chloro-1-(2-fluorobenzyl)-1H-indazol-3-yl]-5-methyl-6-oxo-6,7-dihydro-5H-pyrrolo[2,3-d]pyrimidin-5-yl}phenyl)-N-(methylsulfonyl)propanamide], the Ki in assay [1] worked out at 0.111 nM. Besides, in assay [2], the Emax turned out to be 116% and the EC50 is 560 nM.
Consider `CC1CCC(Cn2nc(-c3nc(N)c4c(n3)NC(=O)C4(C)c3nc(CC(C)(C)C(=O)O)co3)c3cccnc32)CC1` (single isomer, unassigned) [Example 126AA, 3-{2-[4-amino-5-methyl-2-{1-[4-methylcyclohexylmethyl]-1H-pyrazolo[3,4-b]pyridin-3-yl}-6-oxo-6,7-dihydro-5H-pyrrolo[2,3-d]pyrimidin-5-yl]-1,3-oxazol-4-yl}-2,2-dimethylpropanoic acid], for which, in assay [1], the Ki was determined as 0.1 nM. For the same compound, in assay [2], the “% Activation” value is 89.0% and the EC50 is 74 nM.
